US20230093099A1, “COMPOUNDS AND METHODS OF TREATING CANCERS” (CULLGEN (SHANGHAI), INC., priority 2019, published 2023)

test system: RS4;11 cells; assay: Cell viability assay (CellTiter-Glo) in RS4;11 cells; assay type: cell-based; settings: Homo sapiens, 72 h; RS4;11 ALL cells treated for three days; read-out: cell viability inhibition IC50
Outline: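 Three-day compound treatment of RS4;11 ALL cells (5000/well, 3-fold dilution series of 8 or 12 points), with IC50 from a nonlinear least-squares fit to CellTiter-Glo viability data.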

IC50	SMILES
< 100 nM	O=C1CCC(N2C(=O)c3ccc(NCCCCCCCC(=O)N4CCC(n5cc(-c6cnc7cccc(-c8cc(F)c(CN9CCOCC9)c(F)c8)c7n6)cn5)CC4)cc3C2=O)C(=O)N1 (stereo not shown) [JA-187, 5-((8-(4-(4-(8-(3,5-difluoro-4-(morpholinomethyl)phenyl)quinoxalin-2-yl)-1H-pyrazol-1-yl)piperidin-1-yl)-8-oxooctyl)amino)-2-(2,6-dioxopiperidin-3-yl)isoindoline-1,3-dione]
< 100 nM	CS(=O)(=O)c1ccc(-c2cccc3nc(Nc4ccc(N5CCN(CC(=O)NCCCCCCCNc6ccc7c(c6)C(=O)N(C6CCC(=O)NC6=O)C7=O)CC5)cc4)nn23)cc1 (stereo not shown) [JA-214]
< 100 nM	Cc1cnc(Nc2ccc(N3CCN(CC(=O)NCCOCCOCCOCCOCCOCCNc4cccc5c4C(=O)N(C4CCC(=O)NC4=O)C5=O)CC3)cc2)nc1Nc1cccc(S(=O)(=O)NC(C)(C)C)c1 (stereo not shown) [JA-224, 2-(4-(4-((4-((3-(N-(tert-butyl)sulfamoyl)phenyl)amino)-5-methylpyrimidin-2-yl)amino)phenyl)piperazin-1-yl)-N-(17-((2-(2,6-dioxopiperidin-3-yl)-1,3-dioxoisoindolin-4-yl)amino)-3,6,9,12,15-pentaoxaheptadecyl)acetamide]

same assay, conditions: Homo sapiens, 72 h; RS4;11 cells; cell viability, 3 days, CellTiter-Glo; read-out: IC50

SMILES	IC50
O=C(CN1CCC(n2cc(-c3cnc4cccc(-c5cc(F)c(CN6CCOCC6)c(F)c5)c4n3)cn2)CC1)NCCOCCNc1cccc2c1C(=O)N(C1CCC(=O)NC1=O)C2=O (stereo not shown) [JA-139, 2-[4-[4-[8-[3,5-Difluoro-4-(morpholinomethyl)phenyl]quinoxalin-2-yl]pyrazol-1-yl]-1-piperidyl]-N-[2-[2-[[2-(2,6-dioxo-3-piperidyl)-1,3-dioxo-isoindolin-4-yl]amino]ethoxy]ethyl]acetamide]	> 10000 nM
CS(=O)(=O)c1ccc(-c2cccc3nc(Nc4ccc(N5CCN(C(=O)CCCCCOc6ccc7c(c6)C(=O)N(C6CCC(=O)NC6=O)C7)CC5)cc4)nn23)cc1 (stereo not shown) [JA-277, 3-(6-((6-(4-(4-((5-(4-(Methylsulfonyl)phenyl)-[1,2,4]triazolo[1,5-a]pyridin-2-yl)amino)phenyl)piperazin-1-yl)-6-oxohexyl)oxy)-1-oxoisoindolin-2-yl)piperidine-2,6-dione]	447 nM
CS(=O)(=O)c1ccc(-c2cccc3nc(Nc4ccc(N5CCN(CC(=O)NCCCCNc6cccc7c6C(=O)N(C6CCC(=O)NC6=O)C7=O)CC5)cc4)nn23)cc1 (stereo not shown) [JA-109, N-(4-((2-(2,6-Dioxopiperidin-3-yl)-1,3-dioxoisoindolin-4-yl)amino)butyl)-2-(4-(4-((5-(4-(methylsulfonyl)phenyl)-[1,2,4]triazolo[1,5-a]pyridin-2-yl)amino)phenyl)piperazin-1-yl)acetamide]	> 10000 nM
Cc1cnc(Nc2ccc(N3CCN(C(=O)CCNc4cccc5c4C(=O)N(C4CCC(=O)NC4=O)C5=O)CC3)cc2)nc1Nc1cccc(S(=O)(=O)NC(C)(C)C)c1 (stereo not shown) [JA-009, N-(tert-Butyl)-3-((2-((4-(4-(3-((2-(2,6-dioxopiperidin-3-yl)-1,3-dioxoisoindolin-4-yl)amino)propanoyl)piperazin-1-yl)phenyl)amino)-5-methylpyrimidin-4-yl)amino)benzenesulfonamide]	2580 nM
O=C1CCC(N2C(=O)c3ccc(NCCCCCCCC(=O)N4CCC(n5cc(-c6cnc7cccc(-c8cc(F)c(CN9CCOCC9)c(F)c8)c7n6)cn5)CC4)cc3C2=O)C(=O)N1 (stereo not shown) [JA-187, 5-((8-(4-(4-(8-(3,5-difluoro-4-(morpholinomethyl)phenyl)quinoxalin-2-yl)-1H-pyrazol-1-yl)piperidin-1-yl)-8-oxooctyl)amino)-2-(2,6-dioxopiperidin-3-yl)isoindoline-1,3-dione]	54.4 nM
CS(=O)(=O)c1ccc(-c2cccc3nc(Nc4ccc(N5CCN(CC(=O)NCCCCCCCNc6ccc7c(c6)C(=O)N(C6CCC(=O)NC6=O)C7=O)CC5)cc4)nn23)cc1 (stereo not shown) [JA-214]	63.5 nM
O=C1CCC(N2C(=O)c3ccc(C#CCCCCCN4CCC(n5cc(-c6cnc7cccc(-c8cc(F)c(CN9CCOCC9)c(F)c8)c7n6)cn5)CC4)cc3C2=O)C(=O)N1 (stereo not shown) [JA-264, 5-(7-(4-(4-(8-(3,5-difluoro-4-(morpholinomethyl)phenyl)quinoxalin-2-yl)-1H-pyrazol-1-yl)piperidin-1-yl)hept-1-yn-1-yl)-2-(2,6-dioxopiperidin-3-yl)isoindoline-1,3-dione]	98.6 nM
CS(=O)(=O)c1ccc(-c2cccc3nc(Nc4ccc(N5CCN(CC(=O)NCCCCCCCCNc6cccc7c6C(=O)N(C6CCC(=O)NC6=O)C7=O)CC5)cc4)nn23)cc1 (stereo not shown) [JA-118, N-(8-((2-(2,6-Dioxopiperidin-3-yl)-1,3-dioxoisoindolin-4-yl)amino)octyl)-2-(4-(4-((5-(4-(methylsulfonyl)phenyl)-[1,2,4]triazolo[1,5-a]pyridin-2-yl)amino)phenyl)piperazin-1-yl)acetamide]	> 10000 nM
Cc1cnc(Nc2ccc(N3CCN(C(=O)CCNc4ccc5c(c4)C(=O)N(C4CCC(=O)NC4=O)C5=O)CC3)cc2)nc1Nc1cccc(S(=O)(=O)NC(C)(C)C)c1 (stereo not shown) [JA-226, N-(tert-butyl)-3-((2-((4-(4-(3-((2-(2,6-dioxopiperidin-3-yl)-1,3-dioxoisoindolin-5-yl)amino)propanoyl)piperazin-1-yl)phenyl)amino)-5-methylpyrimidin-4-yl)amino)benzenesulfonamide]	365 nM
O=C1CCC(N2Cc3ccc(NCCCCCC(=O)N4CCC(n5cc(-c6cnc7cccc(-c8cc(F)c(CN9CCOCC9)c(F)c8)c7n6)cn5)CC4)cc3C2=O)C(=O)N1 (stereo not shown) [JA-272, 3-(6-((6-(4-(4-(8-(3,5-Difluoro-4-(morpholinomethyl)phenyl)quinoxalin-2-yl)-1H-pyrazol-1-yl)piperidin-1-yl)-6-oxohexyl)amino)-1-oxoisoindolin-2-yl)piperidine-2,6-dione]	520 nM
Cc1cnc(Nc2ccc(N3CCN(CC(=O)NCCOCCOCCOCCOCCOCCNc4cccc5c4C(=O)N(C4CCC(=O)NC4=O)C5=O)CC3)cc2)nc1Nc1cccc(S(=O)(=O)NC(C)(C)C)c1 (stereo not shown) [JA-224, 2-(4-(4-((4-((3-(N-(tert-butyl)sulfamoyl)phenyl)amino)-5-methylpyrimidin-2-yl)amino)phenyl)piperazin-1-yl)-N-(17-((2-(2,6-dioxopiperidin-3-yl)-1,3-dioxoisoindolin-4-yl)amino)-3,6,9,12,15-pentaoxaheptadecyl)acetamide]	105 nM
O=C(CN1CCC(n2cc(-c3cnc4cccc(-c5cc(F)c(CN6CCOCC6)c(F)c5)c4n3)cn2)CC1)NCCCCCNc1ccc2c(c1)C(=O)N(C1CCC(=O)NC1=O)C2=O (stereo not shown) [JA-177, 2-(4-(4-(8-(3,5-Difluoro-4-(morpholinomethyl)phenyl)quinoxalin-2-yl)-1H-pyrazol-1-yl)piperidin-1-yl)-N-(5-((2-(2,6-dioxopiperidin-3-yl)-1,3-dioxoisoindolin-5-yl)amino)pentyl)acetamide]	890 nM
Cc1cnc(Nc2ccc(N3CCN(C(=O)CCOCCNc4ccc5c(c4)C(=O)N(C4CCC(=O)NC4=O)C5=O)CC3)cc2)nc1Nc1cccc(S(=O)(=O)NC(C)(C)C)c1 (stereo not shown) [JA-232, N-(tert-butyl)-3-((2-((4-(4-(3-(2-((2-(2,6-dioxopiperidin-3-yl)-1,3-dioxoisoindolin-5-yl)amino)ethoxy)propanoyl)piperazin-1-yl)phenyl)amino)-5-methylpyrimidin-4-yl)amino)benzenesulfonamide]	> 10000 nM

The remaining lines, values ahead:

IC50	SMILES
> 10000 nM	Cc1ncsc1-c1ccc(CNC(=O)[C@@H]2C[C@@H](O)CN2C(=O)[C@@H](NC(=O)CCCCCCC(=O)N2CCC(n3cc(-c4cnc5cccc(-c6cc(F)c(CN7CCOCC7)c(F)c6)c5n4)cn3)CC2)C(C)(C)C)cc1 [JA-052, (2S,4R)-1-[1 (2S)-2-[[8-[4-[4-[8-[3,5-Difluoro-4-(morpholinomethyl)phenyl]quinoxalin-2-yl]pyrazol-1-yl]-1-piperidyl]-8-oxo-octanoyl]amino]-3,3-dimethyl-butanoyl]-4-hydroxy-N-[[14-(4-methylthiazol-5-yl)phenyl]methyl]pyrrolidine-2-carboxamide]
> 10000 nM	Cc1cnc(Nc2ccc(N3CCN(CC(=O)NCCCCCC(=O)N[C@H](C(=O)N4C[C@H](O)C[C@H]4C(=O)NCc4ccc(-c5scnc5C)cc4)C(C)(C)C)CC3)cc2)nc1Nc1cccc(S(=O)(=O)NC(C)(C)C)c1 [JA-101, (2S,4R)-1-((S)-2-(6-(2-(4-(4-((4-((3-(N-(tert-Butyl)sulfamoyl)phenyl)amino)-5-methylpyrimidin-2-yl)amino)phenyl)piperazin-1-yl)acetamido)hexanamido)-3,3-dimethylbutanoyl)-4-hydroxy-N-(4-(4-methylthiazol-5-yl)benzyl)pyrrolidine-2-carboxamide]
> 10000 nM	Cc1cnc(Nc2ccc(N3CCN(C(=O)CCOCCOCCOCCOCCC(=O)N[C@H](C(=O)N4C[C@H](O)C[C@H]4C(=O)NCc4ccc(-c5scnc5C)cc4)C(C)(C)C)CC3)cc2)nc1Nc1cccc(S(=O)(=O)NC(C)(C)C)c1 [JA-035, (2S,4R)-1-((S)-2-(tert-Butyl)-19-(4-(4-((4-((3-(N-(tert-butyl)sulfamoyl)phenyl)amino)-5-methylpyrimidin-2-yl)amino)phenyl)piperazin-1-yl)-4,19-dioxo-7,10,13,16-tetraoxa-3-azanonadecanoyl)-4-hydroxy-N-(4-(4-methylthiazol-5-yl)benzyl)pyrrolidine-2-carboxamide]
1980 nM	Cc1cnc(Nc2ccc(N3CCN(CC(=O)NCCCCNc4ccc5c(c4)C(=O)N(C4CCC(=O)NC4=O)C5=O)CC3)cc2)nc1Nc1cccc(S(=O)(=O)NC(C)(C)C)c1 (stereo not shown) [JA-243, 2-(4-(4-((4-((3-(N-(tert-butyl)sulfamoyl)phenyl)amino)-5-methylpyrimidin-2-yl)amino)phenyl)piperazin-1-yl)-N-(4-((2-(2,6-dioxopiperidin-3-yl)-1,3-dioxoisoindolin-5-yl)amino)butyl)acetamide]
9380 nM	Cc1cnc(Nc2ccc(N3CCN(CC(=O)NCCOCCOCCOCCOCCOCCC(=O)N[C@H](C(=O)N4C[C@H](O)C[C@H]4C(=O)NCc4ccc(-c5scnc5C)cc4)C(C)(C)C)CC3)cc2)nc1Nc1cccc(S(=O)(=O)NC(C)(C)C)c1 [JA-223, (2S,4R)-1-((S)-23-(tert-butyl)-1-(4-(4-((4-((3-(N-(tert-butyl)sulfamoyl)phenyl)amino)-5-methylpyrimidin-2-yl)amino)phenyl)piperazin-1-yl)-2,21-dioxo-6,9,12,15,18-pentaoxa-3,22-diazatetracosan-24-oyl)-4-hydroxy-N-(4-(4-methylthiazol-5-yl)benzyl)pyrrolidine-2-carboxamide]
960 nM	Cc1ncsc1-c1ccc(CNC(=O)[C@@H]2C[C@@H](O)CN2C(=O)[C@@H](NC(=O)CCOCCOCCOCCOCCOCCC(=O)N2CCN(c3ccc(Nc4nc5cccc(-c6ccc(S(C)(=O)=O)cc6)n5n4)cc3)CC2)C(C)(C)C)cc1 [JA-071, (2S,4R)-1-((S)-2-(tert-Butyl)-22-(4-(4-((5-(4-(methylsulfonyl)phenyl)-[1,2,4]triazolo[1,5-a]pyridin-2-yl)amino)phenyl)piperazin-1-yl)-4,22-dioxo-7,10,13,16,19-pentaoxa-3-azadocosanoyl)-4-hydroxy-N-(4-(4-methylthiazol-5-yl)benzyl)pyrrolidine-2-carboxamide]
